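Where inhibition never reached the appropriate level, the endpoint shown equals the highest concentration tested. Otherwise, values were interpolated linearly from a five-concentration, 48-hour dose response in 96-well plates. TGI is the concentration that stops growth completely.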
Tests used:
Experiment in all cases: growth of human tumour cells (NCI), 48 h
[1] = system: UO-31 renal
[2] = system: SF-268 CNS
[3] = system: OVCAR-8 ovarian
[4] = system: OVCAR-5 ovarian
[5] = system: SF-295 CNS
[6] = system: SNB-19 CNS
[7] = system: KM12 colon
[8] = system: K-562 leukemia
[9] = system: CCRF-CEM leukemia
[10] = system: ACHN renal
[11] = system: RXF 393 renal
[12] = system: SW-620 colon
[13] = system: SK-MEL-28 melanoma
[14] = system: HS 578T breast
[15] = system: BT-549 breast
[16] = system: MDA-N
[17] = system: SR leukemia
[18] = system: SK-MEL-5 melanoma
[19] = system: MALME-3M melanoma
[20] = system: NCI-H226 lung
[21] = system: DU-145 prostate
[22] = system: M14 melanoma
[23] = system: NCI-H23 lung
[24] = system: EKVX NSCLC
[25] = system: OVCAR-4 ovarian
[26] = system: SNB-75 CNS
[27] = system: HL-60(TB) leukemia
[28] = system: LOX IMVI melanoma
[29] = system: HOP-62 NSCLC
[30] = system: PC-3 prostate
[31] = system: HT29 colon
[32] = system: MDA-MB-231 breast
[33] = system: U251 CNS
[34] = system: MOLT-4 leukemia
[35] = system: HOP-92 NSCLC
[36] = system: MCF7 breast
[37] = system: 786-0 renal
[38] = system: IGROV1 ovarian
[39] = system: HCT-116 colon
[40] = system: RPMI-8226 leukemia
[41] = system: UACC-257 melanoma
[42] = system: SN12C renal
[43] = system: COLO 205 colon
[44] = system: SF-539 CNS
[45] = system: SK-MEL-2 melanoma
[46] = system: SK-OV-3 ovarian
[47] = system: T-47D breast
[48] = system: NCI-H460 lung
[49] = system: NCI-H522 lung
[50] = system: HCT-15 colon
[51] = system: NCI/ADR-RES ovarian
[52] = system: A549 NSCLC
[53] = system: UACC-62 melanoma
[54] = system: TK-10 renal
[55] = system: CAKI-1 renal
[56] = system: OVCAR-3 ovarian
[57] = system: A498 renal
[58] = system: MDA-MB-435
[59] = system: HCC-2998 colon

Compound: COC(=O)[C@@H]1[C@H](O)[C@H](C)[C@H](O)[C@H](C)/C=C\C=C(C)C(=O)Nc2c(C)c(OC(C)=O)c3c(c2O)C(=O)C(C)=C2OCOC(=C23)C(C)=C[C@@](C)(O)[C@H](O)[C@@H](C)[C@H]1OC(C)=O
- TGI [1]: > 100 µM
- TGI [2]: > 100 µM
- TGI [3]: > 100 µM
- TGI [4]: > 100 µM
- TGI [5]: > 100 µM
- TGI [6]: > 100 µM
- TGI [7]: > 100 µM
- TGI [8]: > 100 µM
- TGI [9]: > 100 µM
- TGI [10]: > 100 µM
- TGI [11]: > 100 µM
- TGI [12]: > 100 µM
- TGI [13]: > 100 µM
- TGI [14]: > 100 µM
- TGI [15]: > 100 µM
- TGI [16]: 41.9 µM
- TGI [17]: > 100 µM
- TGI [18]: > 100 µM
- TGI [19]: > 100 µM
- TGI [20]: > 100 µM
- TGI [21]: > 100 µM
- TGI [22]: > 100 µM
- TGI [23]: > 100 µM
- TGI [24]: > 100 µM
- TGI [25]: > 100 µM
- TGI [26]: > 100 µM
- TGI [27]: 34 µM
- TGI [28]: > 100 µM
- TGI [29]: > 100 µM
- TGI [30]: > 100 µM
- TGI [31]: > 100 µM
- TGI [32]: > 100 µM
- TGI [33]: > 100 µM
- TGI [34]: > 100 µM
- TGI [35]: > 100 µM
- TGI [36]: 65.3 µM
- TGI [37]: > 100 µM
- TGI [38]: > 100 µM
- TGI [39]: 48.6 µM
- TGI [40]: 56.9 µM
- TGI [41]: 76.6 µM
- TGI [42]: > 100 µM

Compound: Cc1ccc(S(=O)(=O)NC(=O)NCC(N)=O)cc1
- TGI [43]: > 100 µM
- TGI [1]: > 100 µM
- TGI [2]: > 100 µM
- TGI [3]: > 100 µM
- TGI [4]: > 100 µM
- TGI [5]: > 100 µM
- TGI [6]: > 100 µM
- TGI [44]: > 100 µM
- TGI [45]: > 100 µM
- TGI [7]: > 100 µM
- TGI [46]: > 100 µM
- TGI [47]: > 100 µM
- TGI [8]: > 100 µM
- TGI [9]: > 100 µM
- TGI [10]: > 100 µM
- TGI [11]: > 100 µM
- TGI [12]: > 100 µM
- TGI [13]: > 100 µM
- TGI [48]: > 100 µM
- TGI [14]: > 100 µM
- TGI [15]: > 100 µM
- TGI [16]: > 100 µM
- TGI [49]: > 100 µM
- TGI [18]: > 100 µM
- TGI [19]: > 100 µM
- TGI [21]: > 100 µM
- TGI [50]: > 100 µM
- TGI [22]: > 100 µM
- TGI [23]: > 100 µM
- TGI [25]: > 100 µM
- TGI [51]: > 100 µM
- TGI [26]: > 100 µM
- TGI [27]: > 100 µM
- TGI [28]: > 100 µM
- TGI [29]: > 100 µM
- TGI [30]: > 100 µM
- TGI [52]: > 100 µM
- TGI [53]: > 100 µM
- TGI [31]: > 100 µM
- TGI [32]: > 100 µM
- TGI [33]: > 100 µM
- TGI [34]: > 100 µM
- TGI [35]: > 100 µM
- TGI [36]: > 100 µM
- TGI [37]: > 100 µM
- TGI [54]: > 100 µM
- TGI [38]: > 100 µM
- TGI [39]: > 100 µM
- TGI [40]: > 100 µM
- TGI [41]: > 100 µM
- TGI [42]: > 100 µM

Compound: CC[C@H]1C=CCC[C@@]2(C[C@@H]3CC[C@H]4[C@@H](C(=O)OCCCCCCCCCCCCCCCC(=O)N(CCCNC(C)=O)C[C@H](CCNC(C)=O)OC(C)=O)[C@@]5(CCC[C@@H](C)O5)NC(=[N+]34)N2)O1
- TGI [43]: 2.67 µM
- TGI [1]: 3.16 µM
- TGI [2]: 3.38 µM
- TGI [3]: 2.9 µM
- TGI [4]: 2.96 µM
- TGI [55]: 5.08 µM
- TGI [5]: 3.32 µM
- TGI [6]: 3.07 µM
- TGI [44]: 2.87 µM
- TGI [45]: 3.31 µM
- TGI [7]: 2.67 µM
- TGI [46]: 3.12 µM
- TGI [8]: 2.41 µM
- TGI [10]: 3.3 µM
- TGI [11]: 3.44 µM
- TGI [56]: 2.03 µM
- TGI [12]: 3.25 µM
- TGI [13]: 2.63 µM
- TGI [48]: 3.25 µM
- TGI [14]: 4.83 µM
- TGI [15]: 3.5 µM
- TGI [16]: 3.05 µM
- TGI [17]: 3.35 µM
- TGI [49]: 2.63 µM
- TGI [18]: 2.57 µM
- TGI [19]: 2.99 µM
- TGI [20]: 2.94 µM
- TGI [21]: 2.9 µM
- TGI [50]: 3.17 µM
- TGI [22]: 3.24 µM
- TGI [23]: 3.19 µM
- TGI [24]: 2.09 µM
- TGI [25]: 3.16 µM
- TGI [27]: 2.91 µM
- TGI [28]: 3.16 µM
- TGI [29]: 3.42 µM
- TGI [57]: 3.27 µM
- TGI [30]: 2.26 µM
- TGI [58]: 3 µM
- TGI [52]: 3.42 µM
- TGI [53]: 3.52 µM
- TGI [31]: 2.7 µM
- TGI [33]: 2.11 µM
- TGI [34]: 2.99 µM
- TGI [59]: 2.62 µM
- TGI [35]: 2.43 µM
- TGI [36]: 2.98 µM
- TGI [37]: 3.4 µM
- TGI [54]: 2.99 µM
- TGI [38]: 2.66 µM
- TGI [39]: 2.92 µM
- TGI [40]: 0.554 µM
- TGI [41]: 2.68 µM
- TGI [42]: 3.54 µM

Compound: COc1ccc2oc(=O)c(-c3csc(-c4ccccc4)n3)cc2c1
- TGI [43]: > 100 µM
- TGI [1]: 47.1 µM
- TGI [2]: 71.2 µM
- TGI [4]: > 100 µM
- TGI [55]: > 100 µM
- TGI [5]: 53.6 µM
- TGI [6]: 45 µM
- TGI [44]: 31.2 µM
- TGI [45]: > 100 µM
- TGI [7]: > 100 µM
- TGI [46]: 38 µM
- TGI [47]: > 100 µM
- TGI [8]: > 100 µM
- TGI [9]: > 100 µM
- TGI [10]: > 100 µM
- TGI [11]: 59.3 µM
- TGI [12]: > 100 µM
- TGI [13]: > 100 µM
- TGI [48]: > 100 µM
- TGI [14]: 94.5 µM
- TGI [15]: 50.2 µM
- TGI [16]: > 100 µM
- TGI [17]: > 100 µM
- TGI [18]: > 100 µM
- TGI [20]: > 100 µM
- TGI [21]: > 100 µM
- TGI [50]: > 100 µM
- TGI [22]: > 100 µM
- TGI [24]: > 100 µM
- TGI [25]: 97.9 µM
- TGI [26]: 71.7 µM
- TGI [27]: > 100 µM
- TGI [28]: > 100 µM
- TGI [29]: 34.3 µM
- TGI [30]: > 100 µM
- TGI [58]: > 100 µM
- TGI [52]: > 100 µM
- TGI [53]: > 100 µM
- TGI [31]: > 100 µM
- TGI [32]: > 100 µM
- TGI [33]: 52.4 µM
- TGI [34]: > 100 µM
- TGI [59]: > 100 µM
- TGI [35]: 56 µM
- TGI [36]: > 100 µM
- TGI [37]: 34.3 µM
- TGI [54]: 50.6 µM
- TGI [38]: > 100 µM
- TGI [39]: > 100 µM
- TGI [40]: > 100 µM
- TGI [41]: > 100 µM
